Test results taken from US9187784B2, “EphA4 is a disease modifier in motor neuron disease” (VIB VZW, priority 2011, dated 2015).

Assays:
[1] = tested on: zebrafish embryos with knockdown of Smn; experiment: rescue of motor axon phenotype induced by knockdown of Smn (SMA model); type: in vivo
Description: FIG. 14: Inhibiting EphA4 signaling rescues motor axonopathies induced by overexpression of mutant TDP-43 and knockdown of Smn. Y-axes show motor axon length of zebrafish embryos (30 hpf) expressing TDP^WT (black bar) or TDP^A315T (white bar) (Panels A, B) or with unaltered (black bar) or reduced expression levels of Smn (white bar) (Panels C, D). Smn knockdown was established by injection of 3 ng (Panel C) or 6 ng (Panel D) atg-smn morpholino. Ctr-smn morpholino was injected as control. RTK1 signaling was inhibited by injection of 3 ng atg-RTK1 morpholino (shaded bars) (Panels A, C) or by treatment with C1 (500 μM, shaded bars) (Panels B, D). Injection of ctr-RTK1 morpholino and application of a 1/250 dilution of DMSO were used as control. […]
A morpholino database of translation-blocking morpholinos (atg-mo) was used to perform a morpholino-based knockdown screening in a zebrafish model for ALS.^13 The standard control morpholino (5′-[…]-′3) (SEQ ID NO:4), provided by Gene tools, was used as control. Three nanograms of morpholino were co-injected with 1.43 ng of SOD1 mRNA and the effect of gene knockdown on the mutant SOD1-induced axonopathy analyzed. […]

[2] = tested on: RTK1; experiment: RTK1 expression by Western blot and whole-mount immunostaining of zebrafish embryos; type: in vivo; settings: Western blot of zebrafish embryos and whole-mount immunostaining of rhombomeres, 4.5 ng
From the text: FIG. 1: EphA4 knockdown rescues mutant SOD1-induced motor axonopathy. […] Abnormal branching is indicated with arrowhead. Y-axes show motor axon length of zebrafish embryos expressing wild-type SOD1 (black bar, Panels D-G) or mutant SOD1 (white bar, Panels D-G). Knockdown of RTK2 in SOD1A4V- (Panel D), SOD1G93A- (Panel E) and SOD1G37R- (Panel F) expressing fish was established by co-injection of increasing amounts of atg-RTK2 morpholino (shaded bars). RTK1 expression was inhibited in SOD1A4V-expressing fish by co-injection of atg-RTK1 morpholino (shaded bars, Panel G). Ctr-RTK2 and ctr-RTK1 were used as control. ANOVA and Bonferroni's multiple comparison tests were used for statistical analysis. […]
Mice spinal cord and 30 hpf old, dechorionated and deyolked zebrafish embryos, and NSC-43 cells were homogenized in buffer: 50 mM Triz/HCl, pH 7.5, 120 mM NaCl, 1% TRITON® X-100, 1 mM sodium orthovanadaat, 2 mM PMSF, complete protease inhibitor (Roche). Protein concentration was determined using the micro-BCA protein assay reaction kit 207 (Pierce). […]

5′-CTGTGAACACAAGCGCAGCCATTGG-′3 (all phosphorodiamidate morpholino (PMO)) [atg-RTK1]
effect on motor axon phenotype induced by knockdown of Smn [1]: rescued the motor axon phenotype induced by knockdown of Smn | RTK1 expression [2]: efficiently blocked RTK1 expression
